Values quoted from earlier work in patent US20250312405A1, “FOOD SUPPLEMENT COMPRISING NEOHESPERIDIN DIHYROCHALCONE AND PEPPERMINT OIL” (priority 2022, published 2025).

Experiments:
Campylobacter jejuni [1] = conditions: doses of 0.25 mM
Campylobacter jejuni [2] = conditions: dose of 0.2 mM
[3] = system: HT-29 cells co-cultured with immune cells; conditions: doses of 50 μmoles

Row | SMILES | effect on the motility of Campylobacter jejuni (Campylobacter jejuni [1]) | cell invasion (Campylobacter jejuni [2]) | immune-induced epithelial disfunction by Campylobacter jejuni [3]
1 | Cc1ccc(C(C)C)cc1O [carvacrol] | had an effect on the motility | reduced cell invasion | 
2 | COc1cc(/C=C/C(=O)CC(=O)/C=C/c2ccc(O)c(OC)c2)ccc1O [curcumin] |  |  | mitigates the immune-induced epithelial disfunction
